This note sets out measurements from patent US20250188040A1, “PHARMACEUTICAL COMPOSITIONS COMPRISING WRN HELICASE INHIBITORS” (Vividion Therapeutics, Inc., priority 2022, published 2025).

One test addresses T1, WRN C727 (Homo sapiens, UniProt Q14191).
T1 construct: endogenous in cells; host or cells: OCI-AML2
Put plainly: Target engagement, in vitro (lysate), OCI-AML2. The test is classed as binding. The conditions noted are these: read-out: OCI-AML2 WRN C727 TE50 in vitro (lysate). The procedure: Cells or cell lysates were treated with a dose response of compound followed by probe treatment, which labels solvent exposed cysteines. Proteins were enzymatically digested with trypsin and probe-labelled peptides were enriched with streptavidin. Isolated peptides were then separated using reversed-phase liquid chromatography on a C18 column (Dionex Ultimated 3000 nano-LC, Thermo). Peptides were analyzed by parallel reaction monitoring mass spectrometry (Exploris 120, Thermo).
Target engagement (%) is calculated relative to DMSO treated control samples.

Test [1] has as its target hWRN(519-1227)_C-H3CV-GFP-10His (Homo sapiens, UniProt Q14191). Put plainly: Helicase Assay for WRN Inhibition (ATP-dependent, fluorescence based).
The mark [2] stands for this setting: WRN Helicase IC50, 30 min preincubation with ATP, 30 min reaction.

SMILES strings stand for the structures. Like-named read-outs stand apart in the source and are kept apart here.

T1 sequence (Q14191 whole entry): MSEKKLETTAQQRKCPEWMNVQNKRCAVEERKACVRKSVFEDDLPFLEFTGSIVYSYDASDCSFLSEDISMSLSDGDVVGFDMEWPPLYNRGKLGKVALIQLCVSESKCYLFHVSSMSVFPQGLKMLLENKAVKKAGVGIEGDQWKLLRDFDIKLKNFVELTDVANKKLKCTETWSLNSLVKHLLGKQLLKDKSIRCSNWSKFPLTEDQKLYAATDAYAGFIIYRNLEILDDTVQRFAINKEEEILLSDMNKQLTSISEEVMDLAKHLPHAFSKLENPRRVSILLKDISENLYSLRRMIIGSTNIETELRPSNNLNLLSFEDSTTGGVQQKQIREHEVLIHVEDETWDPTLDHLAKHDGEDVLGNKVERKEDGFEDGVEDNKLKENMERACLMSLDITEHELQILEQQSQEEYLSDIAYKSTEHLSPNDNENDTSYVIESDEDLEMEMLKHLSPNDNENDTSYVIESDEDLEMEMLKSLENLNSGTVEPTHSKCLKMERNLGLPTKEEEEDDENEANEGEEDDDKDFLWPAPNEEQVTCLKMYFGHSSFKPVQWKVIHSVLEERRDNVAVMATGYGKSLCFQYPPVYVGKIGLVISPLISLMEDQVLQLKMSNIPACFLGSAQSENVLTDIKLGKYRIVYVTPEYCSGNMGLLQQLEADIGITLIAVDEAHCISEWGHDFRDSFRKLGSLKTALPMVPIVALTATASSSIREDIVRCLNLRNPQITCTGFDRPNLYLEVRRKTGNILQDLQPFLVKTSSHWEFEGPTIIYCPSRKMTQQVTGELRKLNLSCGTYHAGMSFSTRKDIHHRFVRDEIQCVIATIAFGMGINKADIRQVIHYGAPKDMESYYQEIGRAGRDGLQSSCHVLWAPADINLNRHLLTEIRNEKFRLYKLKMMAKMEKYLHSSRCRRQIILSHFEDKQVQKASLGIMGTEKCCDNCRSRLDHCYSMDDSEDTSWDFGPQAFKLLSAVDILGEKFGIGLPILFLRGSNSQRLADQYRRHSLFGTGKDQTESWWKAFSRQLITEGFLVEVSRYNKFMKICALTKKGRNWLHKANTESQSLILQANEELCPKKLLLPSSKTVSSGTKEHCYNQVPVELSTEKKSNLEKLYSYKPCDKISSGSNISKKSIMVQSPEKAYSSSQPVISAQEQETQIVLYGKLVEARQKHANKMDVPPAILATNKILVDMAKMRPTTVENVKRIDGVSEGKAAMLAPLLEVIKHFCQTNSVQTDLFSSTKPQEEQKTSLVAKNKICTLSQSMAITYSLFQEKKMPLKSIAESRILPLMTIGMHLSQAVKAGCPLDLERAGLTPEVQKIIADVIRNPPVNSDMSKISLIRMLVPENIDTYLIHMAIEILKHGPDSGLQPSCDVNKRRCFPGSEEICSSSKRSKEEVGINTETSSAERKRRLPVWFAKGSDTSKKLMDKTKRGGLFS
Chain of hWRN(519-1227)_C-H3CV-GFP-10His (Q14191 519-1227): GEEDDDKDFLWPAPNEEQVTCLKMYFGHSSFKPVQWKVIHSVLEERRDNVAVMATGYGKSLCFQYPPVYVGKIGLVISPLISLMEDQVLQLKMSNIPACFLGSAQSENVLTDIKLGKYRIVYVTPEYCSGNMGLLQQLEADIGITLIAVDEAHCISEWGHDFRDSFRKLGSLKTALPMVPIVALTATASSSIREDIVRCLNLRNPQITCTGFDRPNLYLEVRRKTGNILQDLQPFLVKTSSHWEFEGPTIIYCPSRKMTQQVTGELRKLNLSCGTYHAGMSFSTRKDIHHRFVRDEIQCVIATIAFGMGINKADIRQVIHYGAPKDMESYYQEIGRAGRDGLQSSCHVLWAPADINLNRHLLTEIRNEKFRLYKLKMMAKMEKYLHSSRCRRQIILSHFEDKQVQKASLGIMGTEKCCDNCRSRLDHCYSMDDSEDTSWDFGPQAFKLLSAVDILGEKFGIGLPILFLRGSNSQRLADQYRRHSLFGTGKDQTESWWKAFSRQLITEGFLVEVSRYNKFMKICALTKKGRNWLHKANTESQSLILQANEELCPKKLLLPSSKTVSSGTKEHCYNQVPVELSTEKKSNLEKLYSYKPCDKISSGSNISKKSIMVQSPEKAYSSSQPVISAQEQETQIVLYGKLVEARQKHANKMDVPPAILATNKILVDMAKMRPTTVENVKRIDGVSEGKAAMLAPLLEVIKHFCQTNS

For `C[C@@H](/C=C/S(C)(=O)=O)NC(=O)c1cnc(C(C)(C)C)nc1OC1CCC(F)(F)CC1` [Example 155, (S,E)-2-(tert-butyl)-4-((4,4-difluorocyclohexyl)oxy)-N-(4-(methylsulfonyl)but-3-en-2-yl)pyrimidine-5-carboxamide], the IC50 was 20 µM on WRN C727 and 15 µM in test [1] (setting [2]).

Consider `C[C@@H](/C=C/S(C)(=O)=O)NC(=O)c1cnc(C2CC2)nc1O[C@H]1C[C@H](Cl)C1` [Example 151, 4-((1r,3S)-3-chlorocyclobutoxy)-2-cyclopropyl-N—((S,E)-4-(methylsulfonyl)but-3-en-2-yl)pyrimidine-5-carboxamide], for which the IC50 on WRN C727 was over 100 µM; in test [1] (setting [2]) it was 59 µM.

Regarding `C[C@@H](/C=C/S(C)(=O)=O)NC(=O)c1cnc(C(C)(C)C)nc1OC1(C#N)CCCC1` [Example 161, (S,E)-2-(tert-butyl)-4-((1-cyanocyclopentyl)oxy)-N-(4-(methylsulfonyl)but-3-en-2-yl)pyrimidine-5-carboxamide], the results for the IC50 (at WRN C727; in test [1] (setting [2])) were over 100 µM and 154 µM, respectively.

Turning to `N#C/C=C\CNC(=O)c1cnc(C2CC2)nc1Oc1ccccc1` [Example 267, (Z)—N-(3-cyanoallyl)-2-cyclopropyl-4-phenoxypyrimidine-5-carboxamide], in test [1] (setting [2]), the IC50 came out at 29 µM.

On to `C[C@@H](/C=C/S(C)(=O)=O)NC(=O)c1cnc(C2CCCC2)nc1C1CCCCC1` [Example 239, (S,E)-4-cyclohexyl-2-cyclopentyl-N-(4-(methylsulfonyl)but-3-en-2-yl)pyrimidine-5-carboxamide], for which the values for the IC50 (on WRN C727; in test [1] (setting [2])) were over 100 µM and 148 µM, respectively.

Consider `C[C@@H](/C=C/S(C)(=O)=O)NC(=O)c1cnc(CC2CCCCC2)nc1Oc1ccccc1` [Example 240, (S,E)-2-(cyclohexylmethyl)-N-(4-(methylsulfonyl)but-3-en-2-yl)-4-phenoxypyrimidine-5-carboxamide], for which the IC50 at WRN C727 was over 100 µM; in test [1] (setting [2]), 67 µM.

With `CCc1ccc(Oc2nc(C3CCCC3)ncc2C(=O)N[C@@H](C)/C=C/S(C)(=O)=O)cc1` [Example 107, (S,E)-2-cyclopentyl-4-(4-ethylphenoxy)-N-(4-(methylsulfonyl)but-3-en-2-yl)pyrimidine-5-carboxamide], the IC50 on WRN C727 was over 100 µM; in test [1] (setting [2]), 82 µM.

With `C[C@@H](/C=C/S(C)(=O)=O)NC(=O)c1cnc(C2CC2)nc1OC1CC2(CC2)C1` [Example 142, (S,E)-2-cyclopropyl-N-(4-(methylsulfonyl)but-3-en-2-yl)-4-(spiro[2.3]hexan-5-yloxy)pyrimidine-5-carboxamide], the values for the IC50 (on WRN C727; in test [1] (setting [2])) were 50 µM and 20 µM, respectively.

With `CS(=O)(=O)/C=C/[C@@H](NC(=O)c1cnc(N2CC(F)(F)C2)nc1Oc1ccccc1)C1CC1` [Example 183, (S,E)-N-(1-cyclopropyl-3-(methylsulfonyl)allyl)-2-(3,3-difluoroazetidin-1-yl)-4-phenoxypyrimidine-5-carboxamide], the IC50 on WRN C727 came to 64.4 µM; in test [1] (setting [2]) it was 2.9 µM.

As to `C[C@@H](/C=C/S(C)(=O)=O)NC(=O)c1cnc(C2CCCOC2)nc1Oc1ccccc1` (stereo partly drawn) [Example 212, N—((S,E)-4-(methylsulfonyl)but-3-en-2-yl)-4-phenoxy-2-(tetrahydro-2H-pyran-3-yl)pyrimidine-5-carboxamide], the IC50 at WRN C727 was over 100 µM; in test [1] (setting [2]) it was 31 µM.

Regarding `COc1ncc(C(=O)N[C@H](/C=C/S(C)(=O)=O)C2CC2)c(Oc2ccccc2)n1` [Example 244, (S,E)-N-(1-cyclopropyl-3-(methylsulfonyl)allyl)-2-methoxy-4-phenoxypyrimidine-5-carboxamide], the IC50 on WRN C727 stood at 0.49 µM; in test [1] (setting [2]), 20 µM.

For the compound `C[C@@H](/C=C/S(C)(=O)=O)NC(=O)c1cnc(C2CCCC2)nc1Oc1ccc(O)cc1` [Example 135, (S,E)-2-cyclopentyl-4-(4-hydroxyphenoxy)-N-(4-(methylsulfonyl)but-3-en-2-yl)pyrimidine-5-carboxamide], the IC50 on WRN C727 was determined as 75 µM; in test [1] (setting [2]), 70 µM.

As to `CS(=O)(=O)C1=CCN(C(=O)c2cnc(C3CC3)nc2Oc2ccccc2)C1` [Example 34, (2-cyclopropyl-4-phenoxypyrimidin-5-yl)(3-(methylsulfonyl)-2,5-dihydro-1H-pyrrol-1-yl)methanone], the results for the IC50 (on WRN C727; in test [1]) were over 100 µM and 26 µM, respectively.

Compound `CC1(C)Cc2cc(Oc3ccccc3)c(C(=O)N3CC(=CS(C)(=O)=O)C3)cc2C1=O` [Example 249, 2,2-dimethyl-6-(3-((methylsulfonyl)methylene)azetidine-1-carbonyl)-5-phenoxy-2,3-dihydro-1H-inden-1-one] displayed an IC50 in test [1] of 39 µM.

Take `CS(=O)(=O)/C=C/CNC(=O)c1ccc(C2CCCC2)cc1OC1CCCC1` [Example 198, (E)-4-cyclopentyl-2-(cyclopentyloxy)-N-(3-(methylsulfonyl)allyl)benzamide]: in test [1] (setting [2]), the IC50 stood at 27 µM.

Compound `COC1CN(c2ncc(C(=O)N[C@@H](C)/C=C/S(C)(=O)=O)c(Oc3ccccc3)n2)C1` [Example 169, (S,E)-2-(3-methoxyazetidin-1-yl)-N-(4-(methylsulfonyl)but-3-en-2-yl)-4-phenoxypyrimidine-5-carboxamide] registered an IC50 in test [1] (setting [2]) of 110 µM.

In turn, `CS(=O)(=O)/C=C/CNC(=O)c1ccc(C2CCCC2)cc1OC1CC1` [Example 283, (E)-4-cyclopentyl-2-cyclopropoxy-N-(3-(methylsulfonyl)allyl)benzamide] registered an IC50 in test [1] (setting [2]) of 64 µM.

In test [1] (setting [2]), `C[C@@H](/C=C/S(C)(=O)=O)NC(=O)c1cnc(C2CC2)nc1OC1CCC(F)(F)C1` (stereo partly drawn) [Example 146, 2-cyclopropyl-4-((3,3-difluorocyclopentyl)oxy)-N—((S,E)-4-(methylsulfonyl)but-3-en-2-yl)pyrimidine-5-carboxamide] displayed an IC50 of 53 µM.

As to `Cc1c(C2CC2)ncc(C(=O)N[C@@H](C)/C=C/S(C)(=O)=O)c1Oc1ccccc1` [Example 204, (S,E)-6-cyclopropyl-5-methyl-N-(4-(methylsulfonyl)but-3-en-2-yl)-4-phenoxynicotinamide], the IC50 in test [1] (setting [2]) stood at 96 µM.

As for `Cn1cnc2cc(C(=O)N[C@H](/C=C/S(C)(=O)=O)C3CC3)c(Oc3ccccc3)nc21` [Example 251, (S,E)-N-(1-cyclopropyl-3-(methylsulfonyl)allyl)-3-methyl-5-phenoxy-3H-imidazo[4,5-b]pyridine-6-carboxamide], the IC50 in test [1] (setting [2]) came to 103 µM.

The compound `C[C@@H](/C=C/S(C)(=O)=O)NC(=O)c1ccc(C2CCCC2)c2cccnc12` [Example 203, (S,E)-5-cyclopentyl-N-(4-(methylsulfonyl)but-3-en-2-yl)quinoline-8-carboxamide] had an IC50 in test [1] of 77 µM.

Regarding `N#C/C=C/CNC(=O)c1cnc(C2CC2)nc1Oc1ccccc1` [Example 266, (E)-N-(3-cyanoallyl)-2-cyclopropyl-4-phenoxypyrimidine-5-carboxamide], the IC50 in test [1] (setting [2]) turned out to be 116 µM.

The compound `O=C(NC1C=CS(=O)(=O)C1)c1cnc(C2CC2)nc1Oc1ccccc1` (stereo not drawn) [Example 27, 2-cyclopropyl-N-(1,1-dioxido-2,3-dihydrothiophen-3-yl)-4-phenoxypyrimidine-5-carboxamide] gave an IC50 in test [1] of 34 µM.

In test [1], `C[C@@H](/C=C/S(C)(=O)=O)NC(=O)c1cc2c(cc1Oc1ccccc1)CC(C)(C)C2=O` [Example 248, (S,E)-2,2-dimethyl-N-(4-(methylsulfonyl)but-3-en-2-yl)-3-oxo-6-phenoxy-2,3-dihydro-1H-indene-5-carboxamide] displayed an IC50 of 63 µM.
